Settings: Liquid, Vibrating tube method

CCCCCC(=O)OC [methyl hexanoate]
mass density [kg/m3]
Settings | 293.15 K | 303.15 K | 313.15 K | 323.15 K | 333.15 K | 343.15 K | 353.15 K | 363.15 K
100 kPa | 884.48 | 874.56 | 865.26 | 855.18 | 845.43 | 835.2 | 825.57 | 815.64
1000 kPa | 884.65 | 875.42 | 865.64 | 856.16 | 846.26 | 836.39 | 826.5 | 816.87
3000 kPa | 886.42 | 877.13 | 867.5 | 858.01 | 848.43 | 838.54 | 828.96 | 819.47
5000 kPa | 887.67 | 878.76 | 869.26 | 859.89 | 850.38 | 840.78 | 831.13 | 821.87
10000 kPa | 891.64 | 882.75 | 873.55 | 864.44 | 855.15 | 845.7 | 836.55 | 827.32
15000 kPa | 895.33 | 886.63 | 877.59 | 868.76 | 859.63 | 850.49 | 841.75 | 833.11
20000 kPa | 898.81 | 890.21 | 881.48 | 872.98 | 864 | 855.28 | 846.44 | 837.93
25000 kPa | 902.28 | 893.78 | 885.29 | 876.76 | 868.18 | 859.46 | 851.08 | 842.64
30000 kPa | 905.55 | 897.24 | 888.86 | 880.55 | 871.99 | 863.7 | 855.46 | 847.27
35000 kPa | 908.69 | 900.52 | 892.33 | 884.15 | 875.8 | 867.75 | 859.68 | 851.7
40000 kPa | 911.73 | 903.67 | 895.54 | 887.68 | 879.63 | 871.46 | 863.59 | 856.02
50000 kPa | 917.83 | 909.79 | 901.99 | 894.33 | 886.48 | 878.77 | 871.08 | 863.88
60000 kPa | 923.06 | 915.57 | 907.83 | 900.65 | 892.97 | 885.3 | 878.16 | 871.24

CCCC(=O)OC [methyl butanoate]
mass density [kg/m3]
Settings | 293.15 K | 303.15 K | 313.15 K | 323.15 K | 333.15 K | 343.15 K | 353.15 K | 363.15 K
100 kPa | 898.42 | 886.68 | 875.83 | 864.35 | 853.11 | 841.05 | 829.58 | 817.31
1000 kPa | 898.68 | 887.75 | 876.3 | 865.42 | 854.08 | 842.4 | 830.8 | 818.87
3000 kPa | 900.65 | 889.67 | 878.42 | 867.62 | 856.55 | 844.95 | 833.71 | 821.94
5000 kPa | 902.15 | 891.54 | 880.45 | 869.76 | 858.82 | 847.57 | 836.31 | 824.91
10000 kPa | 906.55 | 895.99 | 885.34 | 875.02 | 864.28 | 853.35 | 842.65 | 831.48
15000 kPa | 910.63 | 900.35 | 889.92 | 879.93 | 869.44 | 858.9 | 848.71 | 838.19
20000 kPa | 914.51 | 904.45 | 894.25 | 884.63 | 874.46 | 864.31 | 854.19 | 843.84
25000 kPa | 918.33 | 908.4 | 898.53 | 888.92 | 879.2 | 869.1 | 859.51 | 849.26
30000 kPa | 921.95 | 912.18 | 902.47 | 893.19 | 883.56 | 873.89 | 864.51 | 854.68
35000 kPa | 925.38 | 915.86 | 906.46 | 897.21 | 887.79 | 878.44 | 869.35 | 859.76
40000 kPa | 928.67 | 919.34 | 910.02 | 901.15 | 892.1 | 882.65 | 873.76 | 864.61
50000 kPa | 935.38 | 926.18 | 917.24 | 908.62 | 899.8 | 890.89 | 882.24 | 873.56
60000 kPa | 941.12 | 932.54 | 923.73 | 915.65 | 906.96 | 898.16 | 890.18 | 881.85

CCCCCCCC(=O)OC [methyl octanoate]
mass density [kg/m3]
Settings | 293.15 K | 303.15 K | 313.15 K | 323.15 K | 333.15 K | 343.15 K | 353.15 K | 363.15 K
100 kPa | 876.9 | 867.63 | 859.3 | 850.11 | 841.41 | 832.2 | 823.55 | 814.86
1000 kPa | 877.02 | 868.42 | 859.59 | 850.91 | 842.13 | 833.32 | 824.37 | 815.91
3000 kPa | 878.65 | 869.93 | 861.28 | 852.59 | 844.08 | 835.25 | 826.59 | 818.18
5000 kPa | 879.78 | 871.47 | 862.89 | 854.3 | 845.82 | 837.24 | 828.51 | 820.31
10000 kPa | 883.45 | 875.12 | 866.8 | 858.46 | 850.11 | 841.71 | 833.34 | 825.1
15000 kPa | 886.82 | 878.71 | 870.52 | 862.36 | 854.18 | 846.06 | 838.05 | 830.33
20000 kPa | 890.07 | 882.04 | 874.1 | 866.24 | 858.22 | 850.39 | 842.32 | 834.62
25000 kPa | 893.28 | 885.35 | 877.59 | 869.67 | 862.06 | 854.17 | 846.49 | 838.84
30000 kPa | 896.35 | 888.57 | 880.87 | 873.15 | 865.57 | 858.07 | 850.48 | 843.09
35000 kPa | 899.25 | 891.59 | 884.11 | 876.46 | 869.05 | 861.81 | 854.32 | 847.13
40000 kPa | 902.05 | 894.49 | 887.04 | 879.75 | 872.61 | 865.19 | 857.88 | 851.06
50000 kPa | 907.81 | 900.27 | 893.07 | 885.93 | 878.98 | 872.01 | 864.82 | 858.24
60000 kPa | 912.62 | 905.64 | 898.5 | 891.84 | 884.95 | 877.98 | 871.35 | 865.07

Source: the NIST ThermoML archive (doi:10.1016/j.fluid.2018.04.024)
